Reference: publication PMC10006169, “A phase I trial of LXS196, a protein kinase C (PKC) inhibitor, for metastatic uveal melanoma” (British Journal of Cancer, 2023)

Test system: patients with MUM
Experiment: Adverse events suspected to be study drug related (NCI-CTCAE v4.03)
Assay type: in vivo, human
Description: Routine safety assessments, including laboratory assessments, physical examinations, vital signs and electrocardiograms (ECGs), were conducted at regular intervals throughout the study and more frequently as needed following patient assessment by the treating physician. Adverse events (AEs) were assessed continuously according to the National Cancer Institute Common Terminology Criteria for Adverse Events (NCI-CTCAE) v4.03.

## CC1(N)CCN(c2cccnc2NC(=O)c2nc(-c3ncccc3C(F)(F)F)cnc2N)CC1 [LXS196]
100 mg QD
  ALT increased, all grades: 0 n (%)
  ALT increased, grade ≥3: 0 n (%)
  AST increased, all grades: 0 n (%)
  AST increased, grade ≥3: 0 n (%)
  Asthenia, all grades: 0 n (%)
  Asthenia, grade ≥3: 0 n (%)
  Blood creatinine increased, all grades: 0 n (%)
  Blood creatinine increased, grade ≥3: 0 n (%)
  Constipation, all grades: 1 (33.3) n (%)
  Constipation, grade ≥3: 0 n (%)
  Diarrhoea, all grades: 1 (33.3) n (%)
  Diarrhoea, grade ≥3: 0 n (%)
  Dry skin, all grades: 0 n (%)
  Dry skin, grade ≥3: 0 n (%)
  Fatigue, all grades: 0 n (%)
  Fatigue, grade ≥3: 0 n (%)
  Hypotension, all grades: 0 n (%)
  Hypotension, grade ≥3: 0 n (%)
  Nausea, all grades: 2 (66.7) n (%)
  Nausea, grade ≥3: 0 n (%)
  Patients with ≥1 AE, all grades: 2 (66.7) n (%)
  Patients with ≥1 AE, grade ≥3: 0 n (%)
  Rash, all grades: 0 n (%)
  Rash, grade ≥3: 0 n (%)
  Vomiting, all grades: 0 n (%)
  Vomiting, grade ≥3: 0 n (%)
200 mg QD
  ALT increased, all grades: 0 n (%)
  ALT increased, grade ≥3: 0 n (%)
  AST increased, all grades: 0 n (%)
  AST increased, grade ≥3: 0 n (%)
  Asthenia, all grades: 1 (25.0) n (%)
  Asthenia, grade ≥3: 0 n (%)
  Blood creatinine increased, all grades: 1 (25.0) n (%)
  Blood creatinine increased, grade ≥3: 0 n (%)
  Constipation, all grades: 2 (50.0) n (%)
  Constipation, grade ≥3: 0 n (%)
  Diarrhoea, all grades: 1 (25.0) n (%)
  Diarrhoea, grade ≥3: 0 n (%)
  Dry skin, all grades: 0 n (%)
  Dry skin, grade ≥3: 0 n (%)
  Fatigue, all grades: 0 n (%)
  Fatigue, grade ≥3: 0 n (%)
  Hypotension, all grades: 0 n (%)
  Hypotension, grade ≥3: 0 n (%)
  Nausea, all grades: 2 (50.0) n (%)
  Nausea, grade ≥3: 1 (25.0) n (%)
  Patients with ≥1 AE, all grades: 4 (100) n (%)
  Patients with ≥1 AE, grade ≥3: 2 (50.0) n (%)
  Rash, all grades: 0 n (%)
  Rash, grade ≥3: 0 n (%)
  Vomiting, all grades: 2 (50.0) n (%)
  Vomiting, grade ≥3: 1 (25.0) n (%)
300 mg BID (RDE)
  ALT increased, all grades: 5 (27.8) n (%)
  ALT increased, grade ≥3: 1 (5.6) n (%)
  AST increased, all grades: 3 (16.7) n (%)
  AST increased, grade ≥3: 1 (5.6) n (%)
  Asthenia, all grades: 4 (22.2) n (%)
  Asthenia, grade ≥3: 0 n (%)
  Blood creatinine increased, all grades: 2 (11.1) n (%)
  Blood creatinine increased, grade ≥3: 0 n (%)
  Constipation, all grades: 1 (5.6) n (%)
  Constipation, grade ≥3: 0 n (%)
  Diarrhoea, all grades: 11 (61.1) n (%)
  Diarrhoea, grade ≥3: 1 (5.6) n (%)
  Dry skin, all grades: 4 (22.2) n (%)
  Dry skin, grade ≥3: 0 n (%)
  Fatigue, all grades: 3 (16.7) n (%)
  Fatigue, grade ≥3: 0 n (%)
  Hypotension, all grades: 3 (16.7) n (%)
  Hypotension, grade ≥3: 0 n (%)
  Nausea, all grades: 14 (77.8) n (%)
  Nausea, grade ≥3: 0 n (%)
  Patients with ≥1 AE, all grades: 17 (94.4) n (%)
  Patients with ≥1 AE, grade ≥3: 2 (11.1) n (%)
  Rash, all grades: 4 (22.2) n (%)
  Rash, grade ≥3: 0 n (%)
  Vomiting, all grades: 7 (38.9) n (%)
  Vomiting, grade ≥3: 0 n (%)
300 mg QD
  ALT increased, all grades: 3 (20.0) n (%)
  ALT increased, grade ≥3: 1 (6.7) n (%)
  AST increased, all grades: 1 (6.7) n (%)
  AST increased, grade ≥3: 1 (6.7) n (%)
  Asthenia, all grades: 3 (20.0) n (%)
  Asthenia, grade ≥3: 0 n (%)
  Blood creatinine increased, all grades: 1 (6.7) n (%)
  Blood creatinine increased, grade ≥3: 0 n (%)
  Constipation, all grades: 1 (6.7) n (%)
  Constipation, grade ≥3: 0 n (%)
  Diarrhoea, all grades: 4 (26.7) n (%)
  Diarrhoea, grade ≥3: 0 n (%)
  Dry skin, all grades: 1 (6.7) n (%)
  Dry skin, grade ≥3: 0 n (%)
  Fatigue, all grades: 7 (46.7) n (%)
  Fatigue, grade ≥3: 0 n (%)
  Hypotension, all grades: 1 (6.7) n (%)
  Hypotension, grade ≥3: 0 n (%)
  Nausea, all grades: 9 (60.0) n (%)
